molecular target: USP7 (Homo sapiens, UniProt Q93009); assay: USP7 inhibitory potency (IC50); assay type: biochemical
Experimental: Activity for compounds described herein is provided in Table 2, wherein potency levels are provided as follows: (Potency: USP7 IC50: A<0.01 μM; B=0.01-0.1 μM; C=>0.1 μM.

Chain of USP7 (Q93009 whole entry): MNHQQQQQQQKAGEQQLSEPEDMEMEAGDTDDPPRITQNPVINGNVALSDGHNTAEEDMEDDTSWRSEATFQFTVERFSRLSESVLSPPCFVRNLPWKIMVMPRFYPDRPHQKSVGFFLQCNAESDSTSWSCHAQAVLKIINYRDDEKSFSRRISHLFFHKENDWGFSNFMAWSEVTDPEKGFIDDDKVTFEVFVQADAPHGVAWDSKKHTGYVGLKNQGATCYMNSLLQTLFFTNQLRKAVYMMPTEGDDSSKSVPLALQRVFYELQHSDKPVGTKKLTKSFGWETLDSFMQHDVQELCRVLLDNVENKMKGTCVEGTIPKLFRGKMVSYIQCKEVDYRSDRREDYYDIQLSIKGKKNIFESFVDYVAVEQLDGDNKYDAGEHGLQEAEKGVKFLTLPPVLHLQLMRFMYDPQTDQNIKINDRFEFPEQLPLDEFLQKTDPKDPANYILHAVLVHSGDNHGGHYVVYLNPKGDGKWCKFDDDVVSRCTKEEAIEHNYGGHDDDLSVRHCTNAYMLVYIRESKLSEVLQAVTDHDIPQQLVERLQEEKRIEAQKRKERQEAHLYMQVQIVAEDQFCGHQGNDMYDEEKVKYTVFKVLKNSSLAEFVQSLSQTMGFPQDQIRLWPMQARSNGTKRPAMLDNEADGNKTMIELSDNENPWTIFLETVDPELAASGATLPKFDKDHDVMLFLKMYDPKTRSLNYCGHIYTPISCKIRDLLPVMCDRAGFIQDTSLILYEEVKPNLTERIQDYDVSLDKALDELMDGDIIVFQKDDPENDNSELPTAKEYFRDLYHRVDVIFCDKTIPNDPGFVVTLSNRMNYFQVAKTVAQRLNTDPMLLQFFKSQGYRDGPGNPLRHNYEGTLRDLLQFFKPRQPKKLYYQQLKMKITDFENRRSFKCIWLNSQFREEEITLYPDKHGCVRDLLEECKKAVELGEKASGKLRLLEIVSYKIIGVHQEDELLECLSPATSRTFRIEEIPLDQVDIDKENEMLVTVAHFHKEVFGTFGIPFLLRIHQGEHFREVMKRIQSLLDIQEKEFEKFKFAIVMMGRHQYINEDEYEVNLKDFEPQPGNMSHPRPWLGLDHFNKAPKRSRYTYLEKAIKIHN

Row | SMILES | IC50
1 | Cc1cc(Cl)cc(-c2ccnc3c(F)c(CN4C(=O)CC[C@@H]4CF)sc23)c1C[C@@H]1CNCCO1 [Example 149, (R)-1-((7-(5-chloro-3-methyl-2-(((R)-morpholin-2-yl)methyl)phenyl)-3-fluorothieno[3,2-b]pyridin-2-yl)methyl)-5-(fluoromethyl)pyrrolidin-2-one] | 10 to 100 nM
2 | Cc1cc(Cl)cc(-c2ncnc3cc(CN4C(=O)C5CC5C4=O)sc23)c1CC1CNCCO1 (stereo not drawn) [Example 152, 3-((4-(5-chloro-3-methyl-2-(morpholin-2-ylmethyl)phenyl)thieno[3,2-d]pyrimidin-6-yl)methyl)-3-azabicyclo[3.1.0]hexane-2,4-dione] | < 10 nM
3 | Cc1cc(Cl)cc(-c2ncnc3cc(CN4C(=O)C5CC5C4=O)sc23)c1CC1CNCC(C)(C)O1 (stereo not drawn) [Example 154, 3-((4-(5-chloro-2-((6,6-dimethylmorpholin-2-yl)methyl)-3-methylphenyl)thieno[3,2-d]pyrimidin-6-yl)methyl)-3-azabicyclo[3.1.0]hexane-2,4-dione] | < 10 nM
4 | Cc1cc(Cl)cc(-c2ncnc3cc(CN4C(=O)C5CC5C4=O)sc23)c1C[C@@H]1CNC[C@@H](C)O1 (stereo partly drawn) [Example 155, 3-((4-(5-chloro-3-methyl-2-(((2R,6R)-6-methylmorpholin-2-yl)methyl)phenyl)thieno[3,2-d]pyrimidin-6-yl)methyl)-3-azabicyclo[3.1.0]hexane-2,4-dione] | < 10 nM
5 | Cc1cc(Cl)cc(-c2ncnc3cc(CN4C(=O)C5CC5C4=O)sc23)c1CC1(C)CNCCO1 (stereo not drawn) [Example 156, 3-((4-(5-chloro-3-methyl-2-((2-methylmorpholin-2-yl)methyl)phenyl)thieno[3,2-d]pyrimidin-6-yl)methyl)-3-azabicyclo[3.1.0]hexane-2,4-dione] | 10 to 100 nM
6 | Cc1cc(Cl)cc(-c2ncnc3cc(CN4C(=O)C5C(C4=O)C5(C)C)sc23)c1CC1(C)CNCCO1 (stereo not drawn) [Example 157, 3-((4-(5-chloro-3-methyl-2-((2-methylmorpholin-2-yl)methyl)phenyl)thieno[3,2-d]pyrimidin-6-yl)methyl)-6,6-dimethyl-3-azabicyclo[3.1.0]hexane-2,4-dione] | 10 to 100 nM
7 | Cc1cc(Cl)cc(-c2ncnc3cc(CN4C(=O)C5CC5C4=O)sc23)c1CC1OCCNC1(C)C (stereo not drawn) [Example 159, 3-((4-(5-chloro-2-((3,3-dimethylmorpholin-2-yl)methyl)-3-methylphenyl)thieno[3,2-d]pyrimidin-6-yl)methyl)-3-azabicyclo[3.1.0]hexane-2,4-dione] | 10 to 100 nM
8 | Cc1cc(Cl)cc(-c2ncnc3cc(CN4C(=O)C5CC5C4=O)sc23)c1C[C@H]1OCCN[C@@H]1C (stereo partly drawn) [Example 160, 3-((4-(5-chloro-3-methyl-2-(((2R,3R)-3-methylmorpholin-2-yl)methyl)phenyl)thieno[3,2-d]pyrimidin-6-yl)methyl)-3-azabicyclo[3.1.0]hexane-2,4-dione] | < 10 nM
9 | COC(=O)C1CC1C(=O)NCc1cc2ncnc(-c3cc(Cl)cc(C)c3C[C@H]3OCCN[C@@H]3C)c2s1 (stereo partly drawn) [Example 161, methyl 2-(((4-(5-chloro-3-methyl-2-(((2R,3R)-3-methylmorpholin-2-yl)methyl)phenyl)thieno[3,2-d]pyrimidin-6-yl)methyl)carbamoyl)cyclopropane-1-carboxylate] | 10 to 100 nM
10 | Cc1cc(Cl)cc(-c2ncnc3cc(Cn4c(=O)ccn(C)c4=O)sc23)c1CC1CNCCO1 (stereo not drawn) [Example 162, 3-((4-(5-chloro-3-methyl-2-(morpholin-2-ylmethyl)phenyl)thieno[3,2-d]pyrimidin-6-yl)methyl)-1-methylpyrimidine-2,4(1H,3H)-dione] | < 10 nM
11 | Cc1cc(Cl)cc(-c2ncnc3cc(Cn4c(=O)ccn(CC(F)(F)F)c4=O)sc23)c1CC1CNCCO1 (stereo not drawn) [Example 167, 3-((4-(5-chloro-3-methyl-2-(morpholin-2-ylmethyl)phenyl)thieno[3,2-d]pyrimidin-6-yl)methyl)-1-(2,2,2-trifluoroethyl)pyrimidine-2,4(1H,3H)-dione] | < 10 nM
12 | Cc1cc(Cl)cc(-c2ncnc3cc(Cn4c(=O)c(F)cn(C(C)C)c4=O)sc23)c1CC1CNCCO1 (stereo not drawn) [Example 168, 3-((4-(5-chloro-3-methyl-2-(morpholin-2-ylmethyl)phenyl)thieno[3,2-d]pyrimidin-6-yl)methyl)-5-fluoro-1-isopropylpyrimidine-2,4(1H,3H)-dione] | < 10 nM

Continued, values first:

Row | IC50 | SMILES
13 | 10 to 100 nM | Cc1cc(Cl)cc(-c2ccnc3c(F)c(CN4C(=O)CCN(C)C4=O)sc23)c1C[C@@H]1CNCCO1 [Example 148, (R)-3-((7-(5-chloro-3-methyl-2-(morpholin-2-ylmethyl)phenyl)-3-fluorothieno[3,2-b]pyridin-2-yl)methyl)-1-methyldihydropyrimidine-2,4(1H,3H)-dione]
14 | < 10 nM | O=C1C2CC2C(=O)N1Cc1cc2nccc(-c3cc(Cl)cc(Cl)c3CC3CNCC4(CCC4)O3)c2s1 (stereo not drawn) [Example 150, 3-((7-(2-((5-oxa-8-azaspiro[3.5]nonan-6-yl)methyl)-3,5-dichlorophenyl)thieno[3,2-b]pyridin-2-yl)methyl)-3-azabicyclo[3.1.0]hexane-2,4-dione]
15 | < 10 nM | Cc1cc(Cl)cc(-c2ncnc3cc(CN4C(=O)C5C(C4=O)C5(C)C)sc23)c1CC1CNCCO1 (stereo not drawn) [Example 151, 3-((4-(5-chloro-3-methyl-2-(morpholin-2-ylmethyl)phenyl)thieno[3,2-d]pyrimidin-6-yl)methyl)-6,6-dimethyl-3-azabicyclo[3.1.0]hexane-2,4-dione]
16 | < 10 nM | Cc1cc(Cl)cc(-c2ncnc3cc(CN4C(=O)CCC4=O)sc23)c1CC1CNCCO1 (stereo not drawn) [Example 153, 1-((4-(5-chloro-3-methyl-2-(morpholin-2-ylmethyl)phenyl)thieno[3,2-d]pyrimidin-6-yl)methyl)pyrrolidine-2,5-dione]
17 | 10 to 100 nM | Cc1cc(Cl)cc(-c2ncnc3cc(CN4C(=O)C5CC5C4=O)sc23)c1CC1CNC(C)(C)CO1 (stereo not drawn) [Example 158, 3-((4-(5-chloro-2-((5,5-dimethylmorpholin-2-yl)methyl)-3-methylphenyl)thieno[3,2-d]pyrimidin-6-yl)methyl)-3-azabicyclo[3.1.0]hexane-2,4-dione]
18 | < 10 nM | Cc1cc(Cl)cc(-c2ncnc3cc(CN4C(=O)CCCC4=O)sc23)c1CC1CNCCO1 (stereo not drawn) [Example 163, 1-((4-(5-chloro-3-methyl-2-(morpholin-2-ylmethyl)phenyl)thieno[3,2-d]pyrimidin-6-yl)methyl)piperidine-2,6-dione]
19 | < 10 nM | Cc1cc(Cl)cc(-c2ncnc3cc(CN4C(=O)CCN(C)C4=O)sc23)c1CC1CNCCO1 (stereo not drawn) [Example 164, 3-((4-(5-chloro-3-methyl-2-(morpholin-2-ylmethyl)phenyl)thieno[3,2-d]pyrimidin-6-yl)methyl)-1-methyldihydropyrimidine-2,4(1H,3H)-dione]
20 | < 10 nM | Cc1cc(Cl)cc(-c2ncnc3cc(Cn4c(=O)ccn(C5CC5)c4=O)sc23)c1CC1CNCCO1 (stereo not drawn) [Example 165, 3-((4-(5-chloro-3-methyl-2-(morpholin-2-ylmethyl)phenyl)thieno[3,2-d]pyrimidin-6-yl)methyl)-1-cyclopropylpyrimidine-2,4(1H,3H)-dione]
21 | < 10 nM | Cc1cc(Cl)cc(-c2ncnc3cc(Cn4c(=O)ccn(C5CCC5)c4=O)sc23)c1CC1CNCCO1 (stereo not drawn) [Example 166, 3-((4-(5-chloro-3-methyl-2-(morpholin-2-ylmethyl)phenyl)thieno[3,2-d]pyrimidin-6-yl)methyl)-1-cyclobutylpyrimidine-2,4(1H,3H)-dione]
